Our source for the IC50 values is patent publication US9926330B2, “Inhibitors of IRAK4 activity” (MERCK SHARP & DOHME CORP., priority 2014, dated 2018).

The term IC50 denotes the point on the concentration scale where inhibition reaches its midpoint. A higher IC50 goes with weaker potency.

The target in this assay is GST tagged IRAK4 (Homo sapiens (Human), UniProt Q9NWZ3). Briefly: IRAK4 Kinase Assay (IMAP fluorescence polarization). Type of assay: biochemical. Conditions: 0.5 nM GST tagged IRAK4, 100 nM fluorescent peptide substrate RP7030, 100 μM ATP, 30 minutes at 25° C., IMAP FP readout. The method, then: The kinase activity of IRAK4 is determined by its ability to catalyze the phosphorylation of a fluorescent polypeptide substrate. The extent of phosphorylation is measured using the IMAP technology (Molecular Devices) where the phosphorylated fluorescent substrate binds to the large M(III)-based nanoparticles which reduces the rotational speed of the substrate and thus increases its fluorescent polarization (FP).
Sequence of GST tagged IRAK4 (Q9NWZ3 whole entry): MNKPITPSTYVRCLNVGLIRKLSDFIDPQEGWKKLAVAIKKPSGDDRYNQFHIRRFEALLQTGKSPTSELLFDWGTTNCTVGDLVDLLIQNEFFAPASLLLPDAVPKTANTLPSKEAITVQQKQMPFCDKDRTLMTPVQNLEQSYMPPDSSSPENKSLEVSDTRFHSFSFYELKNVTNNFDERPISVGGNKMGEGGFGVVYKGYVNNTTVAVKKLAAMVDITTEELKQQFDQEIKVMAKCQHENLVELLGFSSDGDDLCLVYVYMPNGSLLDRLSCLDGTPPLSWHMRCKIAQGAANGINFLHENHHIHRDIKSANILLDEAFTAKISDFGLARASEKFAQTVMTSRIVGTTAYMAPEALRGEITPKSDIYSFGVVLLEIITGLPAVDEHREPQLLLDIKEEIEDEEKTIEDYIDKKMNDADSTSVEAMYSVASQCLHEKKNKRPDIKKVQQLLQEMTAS
20 μL reaction mixture contains 10 mM TriHCl, pH 7.2, 0.5 nM GST tagged IRAK4 (SignalChem), 100 nM fluorescent peptide substrate (RP7030, Molecular Devices), 100 μM ATP, 1 mM DDT, 1 mM MgCl2, and 0.01% Tween 20. The reaction is initiated by the addition of ATP. After incubation for 30 minutes at 25° C., 60 μL of Progressive IMAP Reagent (Molecular Devices) is added to stop the reaction. Change in RP7030's FP is determined by a FP reader (Analyst HT, LJL BioSystems).
(In general: In fluorescence polarisation assays a small probe gives low polarisation when free and higher when bound to something large.)
As for `Cc1ccc2ncnc(N[C@H]3CC[C@H](N[C@@H](C)CS(C)(=O)=O)CC3)c2c1` [Example 2-31, trans-N-[(1S)-1-methyl-2-(methylsulfonyl)ethyl]-N′-(6-methylquinazolin-4-yl)cyclohexane-1,4-diamine], the IC50 turned out to be 0.056 µM.
`Cc1ccc2ncnc(N[C@H]3CC[C@H](N4CCNC(=O)C4)CC3)c2c1` [Example 2-5, 4-{trans-4-[(6-methylquinazolin-4-yl)amino]cyclohexyl}piperazin-2-one] displayed an IC50 of 0.113 µM.
For `Cc1ccc2ncnc(N[C@H]3CC[C@@H](N4CC(S(C)(=O)=O)C4)CC3)c2c1` [Example 2-10, 6-methyl-N-{cis-4-[3-(methylsulfonyl)azetidin-1-yl]cyclohexyl}quinazolin-4-amine], half-maximal inhibition (IC50) was put at 0.384 µM. This IC50 lies about 3.4-fold higher than the previous one.
Then `Cc1ccc2ncnc(N[C@H]3CC[C@H](N[C@H]4CCOC(C)(C)C4)CC3)c2c1` [Example 2-19, trans-N-[(4S)-2,2-dimethyltetrahydro-2H-pyran-4-yl]-N′-(6-methylquinazolin-4-yl)cyclohexane-1,4-diamine], with 0.054 µM; and `Cc1ccc2ncnc(NC3CCC(N4CCC(C(F)(F)F)CC4)CC3)c2c1` (stereo not shown) [Example 2-12, 6-methyl-N-{4-[4-(trifluoromethyl)piperidin-1-yl]cyclohexyl}quinazolin-4-amine], with 9.38 µM; and `N#CCCCc1ccc2ncnc(N[C@H]3CC[C@H](N4CCOCC4)CC3)c2c1` [Example 3-5, 4-(4-(((trans)-4-morpholinocyclohexyl)amino)quinazolin-6-yl)butanenitrile], with 0.142 µM.
Then `CC(O)c1ccc2ncnc(N[C@H]3CC[C@H](N(C)C)CC3)c2c1` (stereo partly drawn) [Example 5-4, 1-(4-{[trans-4-(dimethylamino)cyclohexyl]amino}quinazolin-6-yl)ethanol], with 0.029 µM; and `Cc1ccc2ncnc(N[C@H]3CC[C@H](N[C@@H](C)C4CC4)CC3)c2c1` [Example 2-21, trans-N-[(1S)-1-cyclopropylethyl]-N′-(6-methylquinazolin-4-yl)cyclohexane-1,4-diamine], with 0.073 µM.
Then `CN(C)[C@H]1CC[C@H](Nc2ncnc3ccc(CO)cc23)CC1` [Example 8-1, (4-(((trans)-4-(dimethylamino)cyclohexyl)amino)quinazolin-6-yl)methanol], with 0.029 µM; and `Cc1ccc2ncnc(NC3CCC(N4CCC(C(F)(F)F)CC4)CC3)c2c1` (stereo not shown) [Example 2-11, 6-methyl-N-{4-[4-(trifluoromethyl)piperidin-1-yl]cyclohexyl}quinazolin-4-amine], with 0.088 µM.
Regarding `Cc1ccc2ncnc(N[C@H]3CC[C@H](NCc4ccnn4C)CC3)c2c1` [Example 2-26, trans-N-[(1-methyl-1H-pyrazol-5-yl)methyl]-N′-(6-methylquinazolin-4-yl)cyclohexane-1,4-diamine], the midpoint of inhibition, the IC50, lay at 0.047 µM.
Then `CN(C)[C@H]1CC[C@H](Nc2ncnc3ccc(C(F)(F)F)cc23)CC1` [Example 1-6, trans-N,N-dimethyl-N′-[6-(trifluoromethyl)quinazolin-4-yl]cyclohexane-1,4-diamine], with 0.009 µM; and `CCCCc1ccc2ncnc(N[C@H]3CC[C@H](N4CCOCC4)CC3)c2c1` [Example 4-3, 6-butyl-N-(trans-4-morpholin-4-ylcyclohexyl)quinazolin-4-amine], with 0.034 µM; and `CC(O)CCc1ccc2ncnc(N[C@H]3CC[C@H](N4CCOCC4)CC3)c2c1` (stereo partly drawn) [Example 7-1, 4-(4-(((trans)-4-Morpholinocyclohexyl)amino)quinazolin-6-yl)butan-2-ol], with 0.062 µM.
The compound `Cc1ccc2ncnc(N[C@H]3CC[C@H](N4CC(O)C4)CC3)c2c1` [Example 2-6, 1-{trans-4-[(6-methylquinazolin-4-yl)amino]cyclohexyl}azetidin-3-ol] returned an IC50 of 2.35 µM.
Then `CN(C)[C@H]1CC[C@H](Nc2ncnc3ccc(/C=C/C4CC4)cc23)CC1` [Example 3-1, (trans)-N1-(6-((E)-2-cyclopropylvinyl)quinazolin-4-yl)-N4,N4-dimethylcyclohexane-1,4-diamine], with 0.145 µM; and `Cc1cc2c(N[C@H]3CC[C@H](N4CCOCC4)CC3)ncnc2cc1F` [Example 1-5, 7-fluoro-6-methyl-N-(trans-4-morpholin-4-ylcyclohexyl)quinazolin-4-amine], with 0.032 µM; and `Cc1cc2ncnc(N[C@H]3CC[C@H](N(C)C)CC3)c2cc1C` [Example 1-1, (trans)-N1-(6,7-dimethylquinazolin-4-yl)-N4,N4-dimethylcyclohexane-1,4-diamine], with 1.21 µM.
To `COC/C=C/c1ccc2ncnc(N[C@H]3CC[C@H](N(C)C)CC3)c2c1` [Example 3-3, trans-N′-{6-[(1E)-3-methoxyprop-1-en-1-yl]quinazolin-4-yl}-N,N-dimethylcyclohexane-1,4-diamine] belongs 0.054 µM.
Then `Cc1ccc2ncnc(N[C@H]3CC[C@H](NCC4CC4)CC3)c2c1` [Example 2-25, trans-N-(cyclopropylmethyl)-N′-(6-methylquinazolin-4-yl)cyclohexane-1,4-diamine], with 0.031 µM; and `FC(F)(F)c1ccc2ncnc(N[C@H]3CC[C@H](N4CCOCC4)CC3)c2c1` [Example 1-4, N-(trans-4-morpholin-4-ylcyclohexyl)-6-(trifluoromethyl)quinazolin-4-amine], with 0.015 µM; and `CCc1ccc2ncnc(N[C@H]3CC[C@H](N(C)C)CC3)c2c1` [Example 4-1, (trans)-N1-(6-ethylquinazolin-4-yl)-N4,N4-dimethylcyclohexane-1,4-diamine], with 0.018 µM.
In turn, `Cc1ccc2ncnc(N[C@H]3CC[C@H](NCC4CCOCC4)CC3)c2c1` [Example 2-18, trans-N-(6-methylquinazolin-4-yl)-N′-(tetrahydro-2H-pyran-4-ylmethyl)cyclohexane-1,4-diamine] gave a concentration for half-maximal inhibition (IC50) of 0.046 µM. Compared with the last compound, the IC50 is about 2.6-fold higher.
Then `Cc1ccc2ncnc(N[C@H]3CC[C@H](N4CC5(COC5)C4)CC3)c2c1` [Example 6-2, N-((trans)-4-(2-oxa-6-azaspiro[3.3]heptan-6-yl)cyclohexyl)-6-methylquinazolin-4-amine], with 0.101 µM; and `Cc1ccc2ncnc(N[C@H]3CC[C@H](NCC(C)(C)C)CC3)c2c1` [Example 2-29, trans-N-(2,2-dimethylpropyl)-N′-(6-methylquinazolin-4-yl)cyclohexane-1,4-diamine], with 0.069 µM; and `Cc1ccc2ncnc(N[C@H]3CC[C@H](N4CCOCC4)CC3)c2c1` [Example 1-3, 6-methyl-N-(trans-4-morpholin-4-ylcyclohexyl)quinazolin-4-amine], with 0.012 µM.
As for `Cc1ccc2ncnc(N[C@H]3CC[C@H](N4CCC(F)(F)C4)CC3)c2c1` [Example 2-8, N-[trans-4-(3,3-difluoropyrrolidin-1-yl)cyclohexyl]-6-methylquinazolin-4-amine], half-maximal inhibition (IC50) was put at 0.234 µM.
Turning to `Cc1ccc2ncnc(N[C@H]3CC[C@@H](N4CC(O)C4)CC3)c2c1` [Example 2-7, 1-{cis-4-[(6-methylquinazolin-4-yl)amino]cyclohexyl}azetidin-3-ol], half-maximal inhibition (IC50) required 0.037 µM.
The compound `Cc1ccc2ncnc(O[C@H]3CC[C@H](N4CCOCC4)CC3)c2c1` [Example 1-7, 4-((trans)-4-((6-methylquinazolin-4-yl)oxy)cyclohexyl)morpholine] displayed an IC50 of 0.065 µM.
Compound `Cc1ccc2ncnc(N[C@H]3CC[C@@H](N4CCNC(=O)C4)CC3)c2c1` [Example 2-4, 4-{cis-4-[(6-methylquinazolin-4-yl)amino]cyclohexyl}piperazin-2-one] yielded an IC50 of 2.19 µM.
In turn, `Cc1ccc2ncnc(N[C@H]3CC[C@H](N[C@@H](C)CC(F)(F)F)CC3)c2c1` [Example 2-22, trans-N-(6-methylquinazolin-4-yl)-N′-[(1S)-3,3,3-trifluoro-1-methylpropyl]cyclohexane-1,4-diamine] yielded an IC50 of 0.067 µM.
The compound `Cc1ccc2ncnc(N[C@H]3CC[C@H](N4CCS(=O)(=O)CC4)CC3)c2c1` [Example 6-1, 4-((trans)-4-((6-methylquinazolin-4-yl)amino)cyclohexyl)thiomorpholine-1,1-dioxide] yielded an IC50 of 0.623 µM.
As to `Cc1ccc2ncnc(N[C@H]3CC[C@H](N[C@@H](C)C(C)(C)O)CC3)c2c1` [Example 2-23, (3S)-2-methyl-3-({trans-4-[(6-methylquinazolin-4-yl)amino]cyclohexyl}amino)butan-2-ol], 0.123 µM corresponded to half-maximal inhibition (IC50).
On to `CCc1ccc2ncnc(N[C@H]3CC[C@H](N4CCOCC4)CC3)c2c1` [Example 3-4, 6-ethyl-N-(trans-4-morpholin-4-ylcyclohexyl)quinazolin-4-amine], for which half-maximal inhibition (IC50) required 0.008 µM.
`Cc1ccc2ncnc(N[C@H]3CC[C@H](NCc4cccs4)CC3)c2c1` [Example 2-20, trans-N-(6-methylquinazolin-4-yl)-N′-(thiophen-2-ylmethyl)cyclohexane-1,4-diamine] displayed an IC50 of 0.045 µM.
The compound `Cc1ccc2ncnc(N[C@H]3CC[C@H](N[C@@H](C)C(F)F)CC3)c2c1` [Example 2-30, trans-N-[(1S)-2,2-difluoro-1-methylethyl]-N′-(6-methylquinazolin-4-yl)cyclohexane-1,4-diamine] returned an IC50 of 0.126 µM.
Then `Cc1ccc2ncnc(N[C@H]3CC[C@H](NCCC(F)(F)F)CC3)c2c1` [Example 2-28, trans-N-(6-methylquinazolin-4-yl)-N′-(3,3,3-trifluoropropyl)cyclohexane-1,4-diamine], with 0.025 µM.
